From EP0313984A1, “Substituted azolyl methyl carbinols and pharmaceutical compositions containing them” (BAYER AG, priority 1987, dated 1989)
Converted amounts (≈) assume the structure as drawn.

Tests used:
[1] = test system: Trichophyton mentagr.; test: Antimycotic in-vitro activity, serial dilution test (MIC); type: cell-based, Trichophyton mentagrophytes; settings: inoculum 5 x 10³ to 10⁴ Keime/ml, Sabouraud's milieu d'epreuve, 28 °C to 37 °C, 96 h, read-out: MHK-Werte Trichophyton mentagr.
Experimental: (§1) Die in-vitro-Prüfungen wurden im Reihenverdünnungstest mit Keiminokula von durchschnittlich 5 x 10³ bis 10⁴ Keimen/ml Substrat durchgeführt. Als Nährmedium dienten • a) für Dermatophyten und Schimmelpilze: Sabouraud's milieu d'epreuve • b) für Hefen: Fleischextrakt-Traubenzucker-Bouillon.
(§2) Die Bebrütungstemperatur betrug 28 °C bis 37 °C, die Bebrütungsdauer lag bei 24 bis 96 Stunden bei Hefen und 96 Stunden bei Dermatophyten und Schimmelpilzen.

[2] = test system: Aspergillus fumigatus; test: as above; type: cell-based; settings: inoculum 5 x 10³ to 10⁴ Keime/ml, Sabouraud's milieu d'epreuve, 28 °C to 37 °C, 96 h, read-out: MHK-Werte Aspergillus fumigatus
Experimental: as §1, §2

[3] = test system: Candida albicans; test: as above; type: cell-based; settings: inoculum 5 x 10³ to 10⁴ Keime/ml, Fleischextrakt-Traubenzucker-Bouillon, 28 °C to 37 °C, 24 to 96 h, read-out: MHK-Werte Candida albicans
Experimental: as §1, §2

[4] = test system: Torulopsis glabrata; test: as above; type: cell-based; settings: Nakaseomyces glabratus, inoculum 5 x 10³ to 10⁴ Keime/ml, Fleischextrakt-Traubenzucker-Bouillon, 28 °C to 37 °C, 24 to 96 h, read-out: MHK-Werte Torulopsis glabrata
Experimental: as §1, §2

[5] = test system: Candida; test: Antimycotic in-vivo activity (oral) in mouse candidosis; parameters: species or system Mäuse vom Typ SPF-CF₁
Experimental: Mäuse vom Typ SPF-CF₁ werden intravenös mit 1 - 2 x 10⁶ logarithmisch wachsenden Candida-Zellen, die in physiologischer Kochsalzlösung suspendiert werden, infiziert. Eine Stunde vor und sieben Stunden nach der Infektion werden die Tiere mit jeweils 25 - 100 mg/kg Körpergewicht der Präparate oral behandelt.
Unbehandelte Tiere sterben 3 bis 6 Tage post infektionem. Die Überlebensrate am 6.Tag post infektionem beträgt bei unbehandelten Kontrolltieren etwa 5 %.

[6] = test system: Dermatophyten, Schimmelpilze, Hefen; test: Antimycotic in-vitro activity, serial dilution test (overall comparison); type: cell-based; settings: compared in words with known compounds (A) and (B)
Experimental: as §1, §2

[7] = test system: Microsporum canis; test: Antimycotic in-vitro activity, serial dilution test (MIC); type: cell-based; settings: inoculum 5 x 10³ to 10⁴ Keime/ml, Sabouraud's milieu d'epreuve, 28 °C to 37 °C, 96 h, read-out: MHK-Werte Microsporum canis
Experimental: as §1, §2

[8] = mouse candidosis, oral, compared in words with known compounds (A) and (B)

Structure (SMILES): OC(Cn1cncn1)(Cn1cncn1)c1ccccc1 [(A), 2-Phenyl-1,3-bis-(1,2,4-triazol-1-yl)-propan-2-ol, reference compound]
- MIC [1]: 64 µg/mL (≈ 237 µM)
- MIC [2]: > 64 µg/mL
- MIC [3]: 64 µg/mL (≈ 237 µM)
- MIC [4]: > 64 µg/mL

Structure (SMILES): CC(C)(n1cncn1)C(O)(Cn1ccnc1)c1ccc(F)cc1 (stereo not drawn) [(B), 2-(4-Fluorphenyl)-3-methyl-1-imidazol-1-yl-3-(1,2,4-triazol-1-yl)-butan-2-ol, reference compound]
- MIC [1]: > 64 µg/mL
- Wirkung ([5]; mice infected i.v. with 1 - 2 x 10⁶ Candida cells, 25 - 100 mg/kg oral 1 h before and 7 h after infection, survival at day 6 p.i., class symbols, key not readable): k.w.
- MIC [2]: > 64 µg/mL
- MIC [3]: > 64 µg/mL
- MIC [4]: > 64 µg/mL

Structure (SMILES): Cc1nc(C(O)(Cn2cncn2)c2ccc(F)cc2)cs1 (stereo not drawn) [Verbindung 1, 1-(4-Fluorphenyl)-1-(2-methylthiazol-4-yl)-2-(1,2,4-triazol-1-yl)-ethanol]
- MIC [1]: 4 µg/mL (≈ 13.1 µM)
- MIC [2]: 32 µg/mL (≈ 105 µM)
- MIC [3]: 15 µg/mL (≈ 49.3 µM)
- MIC [4]: > 64 µg/mL
- antimykotische Wirksamkeit [6]: bessere antimykotische Wirksamkeit

Structure (SMILES): Cc1ccc(C(O)(Cn2ccnc2)c2csc(-c3ccc(Cl)cc3)n2)cc1 (stereo not drawn) [Verbindung 3]
- MIC [1]: < 1 µg/mL
- MIC [2]: 16 µg/mL (≈ 40.4 µM)
- MIC [7]: 16 µg/mL (≈ 40.4 µM)
- MIC [3]: < 1 µg/mL
- MIC [4]: 4 µg/mL (≈ 10.1 µM)
- antimykotische Wirksamkeit [6]: bessere antimykotische Wirksamkeit

Structure (SMILES): Cc1ccc(-c2nc(C(O)(Cn3ccnc3)c3ccc(Cl)cc3)cs2)cc1 (stereo not drawn) [Verbindung 14]
- MIC [1]: < 1 µg/mL
- MIC [2]: 4 µg/mL (≈ 10.1 µM)
- MIC [7]: 8 µg/mL (≈ 20.2 µM)
- MIC [3]: 2 µg/mL (≈ 5.05 µM)
- MIC [4]: 2 µg/mL (≈ 5.05 µM)
- antimykotische Wirksamkeit [6]: bessere antimykotische Wirksamkeit

Structure (SMILES): Cc1ccc(-c2nc(C(O)(Cn3cncn3)c3ccc(Cl)cc3)cs2)cc1 (stereo not drawn) [Verbindung 15]
- MIC [1]: < 1 µg/mL
- MIC [2]: 4 µg/mL (≈ 10.1 µM)
- MIC [7]: 8 µg/mL (≈ 20.2 µM)
- MIC [3]: 4 µg/mL (≈ 10.1 µM)
- MIC [4]: 4 µg/mL (≈ 10.1 µM)
- antimykotische Wirksamkeit [6]: bessere antimykotische Wirksamkeit

Structure (SMILES): OC(Cn1ccnc1)(c1ccc(Cl)cc1)c1csc(N2CCCCC2)n1 (stereo not drawn) [Verbindung 18]
- MIC [1]: < 1 µg/mL
- MIC [2]: 32 µg/mL (≈ 82.3 µM)
- MIC [7]: 64 µg/mL (≈ 165 µM)
- MIC [3]: 8 µg/mL (≈ 20.6 µM)
- MIC [4]: 16 µg/mL (≈ 41.1 µM)
- antimykotische Wirksamkeit [6]: bessere antimykotische Wirksamkeit

Structure (SMILES): OC(Cn1ccnc1)(c1ccc(Cl)cc1)c1csc(-c2ccc(Cl)cc2)n1 (stereo not drawn) [Verbindung 20]
- antimykotische Wirksamkeit [6]: bessere antimykotische Wirksamkeit

Structure (SMILES): OC(Cn1cncn1)(c1ccc(Cl)cc1)c1csc(-c2ccc(Cl)cc2)n1 (stereo not drawn) [Verbindung 21]
- Wirkung [5, 8]: bessere Wirkung
- antimykotische Wirksamkeit [6]: bessere antimykotische Wirksamkeit

Structure (SMILES): OC(Cn1ccnc1)(c1ccc(Cl)cc1)c1csc(-c2ccc(-n3ccnc3)c(Cl)c2)n1 (stereo not drawn) [Verbindung 22]
- Wirkung [5, 8]: bessere Wirkung
- antimykotische Wirksamkeit [6]: bessere antimykotische Wirksamkeit

Structure (SMILES): OC(Cn1cncn1)(c1ccc(Cl)cc1)c1csc(-c2ccc(-n3cncn3)c(Cl)c2)n1 (stereo not drawn) [Verbindung 23]
- Wirkung [5, 8]: bessere Wirkung
- antimykotische Wirksamkeit [6]: bessere antimykotische Wirksamkeit

Structure (SMILES): OC(Cn1ccnc1)(c1ccc(Cl)cc1)c1csc(COc2ccc(Cl)cc2Cl)n1 (stereo not drawn) [Verbindung 25]
- antimykotische Wirksamkeit [6]: bessere antimykotische Wirksamkeit

Structure (SMILES): OC(Cn1cncn1)(c1ccc(Cl)cc1)c1csc(COc2ccc(Cl)cc2Cl)n1 (stereo not drawn) [Verbindung 26]
- antimykotische Wirksamkeit [6]: bessere antimykotische Wirksamkeit

Structure (SMILES): OC(Cn1ccnc1)(c1ccc(F)cc1)c1csc(-c2ccccc2)n1 (stereo not drawn) [Verbindung 27]
- antimykotische Wirksamkeit [6]: bessere antimykotische Wirksamkeit

Structure (SMILES): OC(Cn1cncn1)(c1ccc(F)cc1)c1csc(-c2ccccc2)n1 (stereo not drawn) [Verbindung 28]
- antimykotische Wirksamkeit [6]: bessere antimykotische Wirksamkeit

Structure (SMILES): Cc1cccc(-c2nc(C(O)(Cn3cncn3)c3ccc(Cl)cc3)cs2)c1 (stereo not drawn) [Verbindung 36]
- antimykotische Wirksamkeit [6]: bessere antimykotische Wirksamkeit

Structure (SMILES): OC(Cn1ccnc1)(c1ccc(F)cc1)c1csc(-c2ccc(Cl)cc2)n1 (stereo not drawn) [Verbindung 39]
- antimykotische Wirksamkeit [6]: bessere antimykotische Wirksamkeit

Structure (SMILES): OC(Cn1cncn1)(c1ccc(F)cc1)c1csc(-c2ccc(Cl)cc2)n1 (stereo not drawn) [Verbindung 40]
- Wirkung [5, 8]: bessere Wirkung
- antimykotische Wirksamkeit [6]: bessere antimykotische Wirksamkeit

Structure (SMILES): OC(Cn1cncn1)(c1ccc(Cl)cc1)c1csc(-c2ccc(F)cc2)n1 (stereo not drawn) [Verbindung 41]
- Wirkung [5, 8]: bessere Wirkung
- antimykotische Wirksamkeit [6]: bessere antimykotische Wirksamkeit

Structure (SMILES): OC(Cn1cncn1)(c1ccc(Cl)cc1)c1csc(-c2ccc(-n3cncn3)cc2)n1 (stereo not drawn) [Verbindung 42]
- Wirkung [5, 8]: bessere Wirkung
- antimykotische Wirksamkeit [6]: bessere antimykotische Wirksamkeit

Structure (SMILES): CN(c1ccccc1)c1nc(C(O)(Cn2cncn2)c2ccc(Cl)cc2)cs1 (stereo not drawn) [Verbindung 43]
- antimykotische Wirksamkeit [6]: bessere antimykotische Wirksamkeit

Structure (SMILES): OC(Cn1cncn1)(c1ccc(F)cc1)c1csc(-c2ccc(F)cc2)n1 (stereo not drawn) [Verbindung 44]
- antimykotische Wirksamkeit [6]: bessere antimykotische Wirksamkeit

Structure (SMILES): OC(Cn1cncn1)(c1ccc(Cl)cc1)c1csc(Nc2ccccc2)n1 (stereo not drawn) [Verbindung 45]
- antimykotische Wirksamkeit [6]: bessere antimykotische Wirksamkeit

Structure (SMILES): OC(Cn1cncn1)(c1ccc(Cl)cc1)c1csc(-c2ccc(F)c(Cl)c2)n1 (stereo not drawn) [Verbindung 47]
- antimykotische Wirksamkeit [6]: bessere antimykotische Wirksamkeit

Structure (SMILES): CCN(CC)c1nc(C(O)(Cn2cncn2)c2ccc(Cl)cc2)cs1 (stereo not drawn) [Verbindung 49]
- antimykotische Wirksamkeit [6]: bessere antimykotische Wirksamkeit

Structure (SMILES): Cc1ccccc1-c1nc(C(O)(Cn2cncn2)c2ccc(Cl)cc2)cs1 (stereo not drawn) [Verbindung 52]
- antimykotische Wirksamkeit [6]: bessere antimykotische Wirksamkeit

Structure (SMILES): Cc1ccc(C(O)(Cn2cncn2)c2csc(C)n2)cc1 (stereo not drawn) [Verbindung 57]
- Wirkung [5, 8]: bessere Wirkung

Structure (SMILES): OC(Cn1cncn1)(c1ccc(Cl)cc1)c1csc(-c2ccccc2)n1 (stereo not drawn) [Verbindung 59]
- antimykotische Wirksamkeit [6]: bessere antimykotische Wirksamkeit

Structure (SMILES): OC(Cn1ccnc1)(c1ccc(Cl)cc1)c1csc(-c2ccccc2)n1 (stereo not drawn) [Verbindung 62]
- antimykotische Wirksamkeit [6]: bessere antimykotische Wirksamkeit
